According to ChEMBL document CHEMBL6182901, “1,5-Disubstituted 1,2,3-triazoles: Molecular scaffolds for medicinal chemistry and biomolecular mimetics” (Eur J Med Chem, 2025):
≈ marks a conversion by molar mass, not a printed value. Residues, ends and D or L forms follow the SMILES beside them.

Experiments:
[1] = Binding affinity to c-Src (unknown origin) assessed as inhibition constant by fluorescence based assay; design: species or system Homo sapiens
[2] = Binding affinity to c-Abl (unknown origin) assessed as inhibition constant by fluorescence based assay; design: species or system Homo sapiens
HeLa = assay: Cytostatic activity against human HeLa cells measured for 72 hrs; type: functional; settings: read-out: ED50 (the source's name)
Histone deacetylase = assay: Inhibition of HDAC extracted from human HeLa cell nuclear extract by fluorescence assay; type: subcellular, Nucleus
EMT6 [3] = assay: Anticancer activity against mouse EMT6 cells assessed as reduction in cell viability incubated for 48 hrs by XTT assay; type: functional, cell-based; settings: EMT6, 48 h
EMT6 [4] = assay: Anticancer activity against mouse EMT6 cells assessed as reduction in cell viability at 100 uM incubated for 48 hrs by XTT assay relative to control; type: functional
[5] = molecular target: Human immunodeficiency virus type 1 reverse transcriptase (Human immunodeficiency virus 1, UniProt Q72547); assay: Binding affinity to HIV-1 reverse transcriptase assessed as dissociation constant
[6] = Inhibition of bovine pancrease trypsin-catalyzed proteolysis of chromogenic substrate Boc-QAR-pNA; design: species or system Bos taurus
HepG2 = assay: Cytotoxicity against human HepG2 cells assessed as reduction in cell viability incubated for 24 hrs by MTT assay; type: functional, cell-based; settings: HepG2, 24 h
MDA-MB-231 = assay: Cytotoxicity against human MDA-MB-231 cells assessed as reduction in cell viability incubated for 24 hrs by MTT assay; type: functional, cell-based; settings: MDA-MB-231, 24 h
A549 = assay: Cytotoxicity against human A549 cells assessed as reduction in cell viability incubated for 24 hrs by MTT assay; type: functional, cell-based; settings: A549, 24 h
[7] = Binding affinity to Aplysia californica Acetylcholine-binding protein assessed as dissociation constant
[8] = molecular target: Acetylcholine-binding protein (Lymnaea stagnalis, UniProt P58154); assay: Binding affinity to Lymnaea stagnalis Acetylcholine-binding protein assessed as dissociation constant
Acetylcholine-binding protein, sequence (P58154 whole entry): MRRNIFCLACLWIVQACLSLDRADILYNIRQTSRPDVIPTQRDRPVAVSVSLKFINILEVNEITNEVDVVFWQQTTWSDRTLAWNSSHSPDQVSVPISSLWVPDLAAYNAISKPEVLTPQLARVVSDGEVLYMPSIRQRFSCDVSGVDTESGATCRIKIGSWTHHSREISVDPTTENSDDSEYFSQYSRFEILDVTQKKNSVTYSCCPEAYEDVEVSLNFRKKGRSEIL

[9] = Binding affinity to Aplysia californica Y55W Acetylcholine-binding protein assessed as dissociation constant
D-amino-acid oxidase = D-amino-acid oxidase (Homo sapiens, UniProt P14920); assay: Binding affinity to human DAO assessed as inhibition constant
D-amino-acid oxidase, sequence (P14920 whole entry): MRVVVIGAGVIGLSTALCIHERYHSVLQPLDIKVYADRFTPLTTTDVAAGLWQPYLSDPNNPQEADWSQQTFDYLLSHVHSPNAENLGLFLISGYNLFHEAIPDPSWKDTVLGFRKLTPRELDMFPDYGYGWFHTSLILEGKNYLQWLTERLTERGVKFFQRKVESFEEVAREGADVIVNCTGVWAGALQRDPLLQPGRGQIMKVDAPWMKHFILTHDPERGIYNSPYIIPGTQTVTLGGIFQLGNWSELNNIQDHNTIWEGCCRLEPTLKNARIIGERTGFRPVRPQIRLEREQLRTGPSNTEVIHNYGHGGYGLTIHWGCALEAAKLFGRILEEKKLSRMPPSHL

SW480 = assay: Anticancer activity against human SW480 cells assessed as reduction in cell viability incubated for 48 hrs by XTT assay; type: functional, cell-based; settings: SW480, 48 h
Escherichia coli = assay: Antibacterial activity against Escherichia coli assessed as reduction in microbial growth by CLSI based broth microdilution method; type: functional
Staphylococcus aureus = assay: Antibacterial activity against Staphylococcus aureus assessed as reduction in microbial growth by CLSI based broth microdilution method; type: functional
[10] = molecular target: C-X-C chemokine receptor type 4 (Homo sapiens, UniProt P61073); assay: Displacement of 125I-CXCL12 from CXCR4 in human CCRF-CEM cells by competitive binding assay; type: cell-based
C-X-C chemokine receptor type 4, sequence (P61073 whole entry): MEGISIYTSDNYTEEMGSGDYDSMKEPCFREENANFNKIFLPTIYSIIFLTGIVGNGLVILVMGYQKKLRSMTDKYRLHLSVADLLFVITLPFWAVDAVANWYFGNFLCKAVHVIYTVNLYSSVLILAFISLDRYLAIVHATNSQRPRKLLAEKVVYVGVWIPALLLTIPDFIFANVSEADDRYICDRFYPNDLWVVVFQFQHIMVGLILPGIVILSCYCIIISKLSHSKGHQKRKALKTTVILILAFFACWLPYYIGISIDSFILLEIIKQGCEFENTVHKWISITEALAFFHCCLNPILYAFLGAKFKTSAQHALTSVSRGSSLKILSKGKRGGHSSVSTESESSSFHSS

[11] = Inhibition of bovine pancrease trypsin by microplate reader analysis; design: species or system Bos taurus

SMILES: Nc1ncnc2c1c(-c1ccc(Cl)cc1)nn2-c1cccc(-c2cnnn2Cc2cccc(-c3ccccc3)c2)c1
- Ki [1]: 0.044 µM
- Ki [2]: > 125 µM

SMILES: CC(=O)OC[C@H]1O[C@@H](n2cc(CBr)nn2)[C@H](OC(C)=O)[C@@H](OC(C)=O)[C@@H]1OC(C)=O
- EC50 (HeLa): 3.5 µg/mL (≈ 7.11 µM)

SMILES: CC(=O)OC[C@H]1O[C@@H](n2cc(CI)nn2)[C@H](OC(C)=O)[C@@H](OC(C)=O)[C@@H]1OC(C)=O
- EC50 (HeLa): 2 µg/mL (≈ 3.71 µM)

SMILES: CC(=O)OC[C@H]1O[C@@H](n2nncc2CBr)[C@H](OC(C)=O)[C@@H](OC(C)=O)[C@@H]1OC(C)=O
- EC50 (HeLa): 4 µg/mL (≈ 8.13 µM)

SMILES: CCC(=O)CCCCC[C@@H]1NC(=O)[C@@H](C(C)(C)C)n2cc(nn2)[C@H]([C@@H](C)CC)NC(=O)[C@H](Cc2c[nH]c3ccccc23)NC1=O
- IC50 (Histone deacetylase): < 0.1 µM

SMILES: CC1(C)CC[C@]2(C(=O)OCc3cnnn3-c3ccc([N+](=O)[O-])cc3)CC[C@]3(C)C(=CC[C@@H]4[C@@]5(C)CC[C@H](O)C(C)(C)[C@@H]5CC[C@]43C)[C@@H]2C1
- IC50 (EMT6 [3]): 74 µM
- Activity (EMT6 [4]): 74%

SMILES: N[C@H]1C[C@@H](N)[C@H](OCc2cnnn2CC(=O)c2ccc(-c3ccccc3)cc2)C1
- Kd [5]: 3.3 µM

SMILES: CC[C@H](C)[C@@H]1NC(=O)[C@@H]2CCCN2C(=O)[C@@H]2CCCN2C(=O)[C@H]([C@@H](C)CC)NC(=O)[C@H](CO)NC(=O)[C@H](CCCCN)NC(=O)[C@@H]([C@H](C)O)NC(=O)[C@@H](NC(=O)[C@H](CCCNC(=N)N)NC(=O)CN)CSSC[C@@H](C(=O)N[C@@H](Cc2ccccc2)C(=O)N2CCC[C@H]2C(=O)N[C@@H](CC(=O)O)C(=O)O)NC1=O
- Ki [6]: 0.00148 µM

SMILES: O=C(Nc1ccccc1)[C@@H]1C[C@H]2CCc3cnnn3CCOc3cccc(c3)C(=O)N1C2
- IC50 (HepG2): 36.3 µM
- IC50 (MDA-MB-231): 43.7 µM
- IC50 (A549): 46.3 µM

SMILES: NC(=O)[C@@H]1C[C@H]2CCc3cnnn3CCOc3cccc(c3)C(=O)N1C2
- IC50 (HepG2): 34.7 µM
- IC50 (MDA-MB-231): 28 µM
- IC50 (A549): 41.3 µM

SMILES: C#Cc1cccc(-n2nc(-c3ccc(Cl)cc3)c3c(N)ncnc32)c1
- Ki [1]: 1.45 µM
- Ki [2]: 7.15 µM

SMILES: N[C@H]1C[C@@H](N)[C@H](OCc2cnnn2CC(=O)c2ccc3ccccc3c2)C1
- Kd [5]: 1.9 µM

SMILES: Cn1c(=O)cc(OCc2cn(C3CC4CC3[N+]4(C)C)nn2)c2ccccc21 (stereo unspecified)
- Kd [7]: 0.024 µM
- Kd [8]: 0.00096 µM
- Kd [9]: 0.017 µM

SMILES: Cc1cccc(-n2nncc2COC(=O)[C@]23CCC(C)(C)C[C@H]2C2=CC[C@@H]4[C@@]5(C)CC[C@H](O)C(C)(C)[C@@H]5CC[C@@]4(C)[C@]2(C)CC3)c1
- IC50 (EMT6 [3]): 60 µM

SMILES: CC(C)CNC(=O)[C@@H]1C[C@H]2CCc3cnnn3CCOc3cccc(c3)C(=O)N1C2
- IC50 (HepG2): 37.3 µM
- IC50 (MDA-MB-231): 43.2 µM
- IC50 (A549): 32.2 µM

SMILES: CC[C@H](C)[C@@H]1NC(=O)[C@@H]2CCCN2C(=O)[C@@H]2CCCN2C(=O)[C@H]([C@@H](C)CC)NC(=O)[C@H](CO)NC(=O)[C@H](CCCCN)NC(=O)[C@@H]([C@H](C)O)NC(=O)[C@@H](NC(=O)[C@H](CCCNC(=N)N)NC(=O)CN)CCn2nncc2C[C@@H](C(=O)N[C@@H](Cc2ccccc2)C(=O)N2CCC[C@H]2C(=O)N[C@@H](CC(=O)O)C(=O)O)NC1=O
- Ki [6]: 0.0024 µM

SMILES: O=C(Cn1nncc1CO/N=C(/Cc1ccc(O)cc1)C(=O)O)N[C@@H](Cc1ccccc1)C(=O)O
- Ki (D-amino-acid oxidase): 0.4 µM

SMILES: CC1(C)CC[C@]2(C(=O)OCc3cn(-c4ccc(Cl)cc4)nn3)CC[C@]3(C)C(=CC[C@@H]4[C@@]5(C)CC[C@H](O)C(C)(C)[C@@H]5CC[C@]43C)[C@@H]2C1
- IC50 (EMT6 [3]): 91.8 µM
- IC50 (SW480): 76 µM

SMILES: CC[C@H]1COC(=O)C[C@@H](O)[C@H](C)[C@@H](O[C@@H]2OC[C@@H](O)[C@H](N(C)C)[C@H]2O)[C@@H](CN(Cc2ccccc2)Cc2cnnn2-c2cnc3ccccc3c2)C[C@@H](C)C(=O)/C=C/C(C)=C/[C@@H]1CO
- MIC (Escherichia coli): 464 µg/mL
- MIC (Staphylococcus aureus): 4 µg/mL

SMILES: Cn1c(=O)cc(OCc2cnnn2C2C[C@@H]3C[C@H]2[N+]3(C)C)c2ccccc21 (stereo partly specified)
- Kd [7]: 0.331 µM
- Kd [8]: 0.00164 µM
- Kd [9]: 0.0981 µM

SMILES: Nc1ncnc2c1c(-c1ccc(Cl)cc1)nn2-c1cccc(-c2cnnn2Cc2ccccc2)c1
- Ki [1]: 0.207 µM
- Ki [2]: > 125 µM

SMILES: [N-]=[N+]=NCC(=O)N[C@@H](Cc1ccccc1)C(=O)O
- Ki (D-amino-acid oxidase): 0.001 µM

SMILES: O=C(O)[C@@H]1C[C@H]2CCc3cnnn3CCOc3cccc(c3)C(=O)N1C2
- IC50 (HepG2): 44.9 µM
- IC50 (MDA-MB-231): 34.3 µM
- IC50 (A549): 37.1 µM

SMILES: CC(=O)N[C@@H](CCCNC(=N)N)C(=O)N[C@@H](C)C(=O)N[C@H]1CCn2nncc2C[C@@H](C(=O)O)NC(=O)[C@H](Cc2c[nH]cn2)NC(=O)[C@H](Cc2ccc3ccccc3c2)NC(=O)[C@H](CCCNC(=N)N)NC(=O)C1
- IC50 [10]: 0.022 µM

SMILES: CC[C@H](C)[C@@H]1NC(=O)[C@H](CO)NC(=O)[C@@H](CCCCN)NC(=O)[C@@H]([C@H](C)O)NC(=O)[C@@H](NC(=O)[C@H](CCCNC(=N)N)NC(=O)CN)CCn2cc(nn2)C[C@@H](C(=O)N[C@@H](Cc2ccccc2)C(=O)N2CCC[C@H]2C(=O)N[C@@H](CC(=O)O)C(=O)O)NC(=O)[C@@H]([C@@H](C)CC)NC(=O)[C@@H]2CCCN2C(=O)[C@@H]2CCCN2C1=O
- Ki [6]: 1.91 µM

SMILES: N[C@H]1C[C@@H](N)[C@H](OCc2cnnn2CC(=O)c2ccc(-c3ccccn3)s2)C1
- Kd [5]: 3.7 µM

SMILES: CC1(C)CC[C@]2(C(=O)OCc3cn(-c4ccc(Br)cc4)nn3)CC[C@]3(C)C(=CC[C@@H]4[C@@]5(C)CC[C@H](O)C(C)(C)[C@@H]5CC[C@]43C)[C@@H]2C1
- IC50 (EMT6 [3]): 91.8 µM
- IC50 (SW480): 29.6 µM

SMILES: CC(=O)N[C@@H](CCCNC(=N)N)C(=O)N[C@@H](C)C(=O)N[C@H]1CCn2cc(nn2)C[C@@H](C(=O)O)NC(=O)[C@H](Cc2c[nH]cn2)NC(=O)[C@H](Cc2ccc3ccccc3c2)NC(=O)[C@H](CCCNC(=N)N)NC(=O)C1
- IC50 [10]: 0.018 µM

SMILES: CC[C@H](C)[C@@H]1NC(=O)[C@@H]2CCCN2C(=O)[C@H](C)n2nncc2[C@H]([C@@H](C)CC)NC(=O)[C@H](CO)NC(=O)CNC(=O)[C@H]([C@@H](C)O)NC(=O)[C@@H](NC(=O)[C@H](CCCNC(=N)N)NC(=O)CN)CSSC[C@@H](C(=O)N[C@@H](Cc2ccccc2)C(=O)N2CCC[C@H]2C(=O)N[C@@H](CC(=O)O)C(=O)O)NC1=O (HELM PEPTIDE1{G.R.C.T.G.S.[CC[C@H](C)[C@H](N[*:1])c1cnnn1[C@@H](C)C(=O)[*:2]].P.I.C.F.P.D}$PEPTIDE1,PEPTIDE1,3:R3-10:R3$$$V2.0)
- Ki [11]: 0.034 µM

SMILES: CC[C@H](C)[C@@H]1NC(=O)[C@H](CO)NC(=O)[C@H](CCCCN)NC(=O)[C@H]([C@@H](C)O)NC(=O)[C@@H](NC(=O)[C@H](CCCNC(=N)N)NC(=O)CN)CSSC[C@@H](C(=O)N[C@@H](Cc2ccccc2)C(=O)N2CCC[C@H]2C(=O)N[C@@H](CC(=O)O)C(=O)O)NC(=O)[C@H]([C@@H](C)CC)NC(=O)[C@@H]2CCCN2C(=O)[C@H](C)NC1=O (HELM PEPTIDE1{G.R.C.T.K.S.I.A.P.I.C.F.P.D}$PEPTIDE1,PEPTIDE1,3:R3-11:R3$$$V2.0)
- Ki [11]: 0.178 µM

SMILES: CC[C@H](C)[C@@H]1NC(=O)[C@H](C)NC(=O)[C@@H]2CCCN2C(=O)[C@H]([C@@H](C)CC)NC(=O)[C@H](CO)NC(=O)[C@H](CCCCN)NC(=O)[C@H]([C@@H](C)O)NC(=O)[C@@H](NC(=O)[C@H](CCCNC(=N)N)NC(=O)CN)CSSC[C@@H](C(=O)N[C@@H](Cc2ccccc2)C(=O)N2CCC[C@H]2C(=O)N[C@@H](CC(=O)O)C(=O)O)NC1=O (HELM PEPTIDE1{G.R.C.T.K.S.I.P.A.I.C.F.P.D}$PEPTIDE1,PEPTIDE1,3:R3-11:R3$$$V2.0)
- Ki [11]: 0.0032 µM

SMILES: CC[C@H](C)[C@@H]1NC(=O)[C@H](C)n2nncc2[C@@H]2CCCN2C(=O)[C@H]([C@@H](C)CC)NC(=O)[C@H](CO)NC(=O)[C@H](CCCCN)NC(=O)[C@H]([C@@H](C)O)NC(=O)[C@@H](NC(=O)[C@H](CCCNC(=N)N)NC(=O)CN)CSSC[C@@H](C(=O)N[C@@H](Cc2ccccc2)C(=O)N2CCC[C@H]2C(=O)N[C@@H](CC(=O)O)C(=O)O)NC1=O (HELM PEPTIDE1{G.R.C.T.K.S.I.[C[C@@H](C(=O)[*:2])n1nncc1[C@@H]1CCCN1[*:1]].I.C.F.P.D}$PEPTIDE1,PEPTIDE1,3:R3-10:R3$$$V2.0)
- Ki [11]: 0.255 µM
